Results on twelve compounds are retold here after ChEMBL document CHEMBL1806355, “Synthesis and evaluation of 1-cyclopropyl-2-thioalkyl-8-methoxy fluoroquinolones” (2011).

≈ marks a conversion by molar mass, not a printed value. Calls of active or inactive are those of the source. The calls are words filed in the database; no cut-off is given here.

The test system of experiment [1] is Escherichia coli. Briefly: Antibacterial activity against Escherichia coli KD65. The format is functional.
For experiment [2], the system named is Mycolicibacterium smegmatis. Put plainly: Antibacterial activity against Mycobacterium smegmatis KD1163. Format: functional.
Experiment [3] relates to Escherichia coli. Briefly: Antibacterial activity against tolC knockout Escherichia coli KD1397. Format: functional.
Experiment [4] is described as follows: Inhibition of DNA gyrase.

Consider `O=c1ccn(C2CC2)c2cc(N3CCNCC3)c(F)cc12`, for which the minimum inhibitory concentration (MIC) (in general, the lowest concentration that inhibits growth of the organism) with Escherichia coli [1] was determined as 50 µg/mL (≈ 174 µM); in experiment [2], 6.25 µg/mL (≈ 21.8 µM); in the experiment with Escherichia coli [3] it was 1.56 µg/mL (≈ 5.43 µM).
For `CCSc1cc(=O)c2cc(F)c(N3CCNCC3)c(OC)c2n1C1CC1`, the minimum inhibitory concentration (MIC) with Escherichia coli [1] is above 50 µg/mL; in experiment [2], above 50 µg/mL; in the experiment with Escherichia coli [3], 25 µg/mL (≈ 66.2 µM). For the same compound, the inhibition entry in experiment [4] was “Active”.
For the compound `CC1Sc2cc(=O)c3cc(F)c(N4CCNCC4)cc3n21` (stereo unspecified) [DESCARBOXYULIFLOXACIN], the MIC with Escherichia coli [1] is above 200 µg/mL; in experiment [2], 200 µg/mL (≈ 655 µM); with Escherichia coli [3] it was 200 µg/mL (≈ 655 µM).
For `COc1c(N2C[C@@H]3CCCN[C@@H]3C2)c(F)cc2c(=O)c(C(=O)O)cn(C3CC3)c12` [MOXIFLOXACIN], the minimal inhibitory concentration (MIC) worked out at 0.156 µg/mL (≈ 0.389 µM) in the experiment on Escherichia coli [1], 0.08 µg/mL (≈ 0.199 µM) in experiment [2] and 0.004 µg/mL (≈ 0.00996 µM) against Escherichia coli [3].
Take `CCSc1c(C(=O)O)c(=O)c2cc(F)c(N3CCNCC3)c(OC)c2n1C1CC1`: the MIC against Escherichia coli [1] was 200 µg/mL (≈ 475 µM); in experiment [2], above 200 µg/mL; in the experiment with Escherichia coli [3] it was 12.5 µg/mL (≈ 29.7 µM). Also, the inhibition entry in experiment [4] was “Active”.
The matching figures for `CCSc1cc(=O)c2cc(F)c(N3C[C@@H]4CCCN[C@@H]4C3)c(OC)c2n1C1CC1`: above 200 µg/mL, above 200 µg/mL, 100 µg/mL (≈ 239 µM) and “Active”.
For `O=C(O)c1cn(C2CC2)c2cc(N3CCNCC3)c(F)cc2c1=O` [CIPROFLOXACIN], the minimum inhibitory concentration (MIC) against Escherichia coli [1] stood at 0.04 µg/mL (≈ 0.121 µM); in experiment [2], 0.156 µg/mL (≈ 0.471 µM).
In the case of `COc1c(N2C[C@@H]3CCCN[C@@H]3C2)c(F)cc2c(=O)ccn(C3CC3)c12`, the MIC with Escherichia coli [1] was above 200 µg/mL; in experiment [2], above 200 µg/mL; against Escherichia coli [3], 100 µg/mL (≈ 280 µM).
Take `CC1Sc2c(C(=O)O)c(=O)c3cc(F)c(N4CCNCC4)cc3n21` (stereo unspecified) [ULIFLOXACIN]: the minimum inhibitory concentration (MIC) turned out to be 0.062 µg/mL (≈ 0.177 µM) in the experiment with Escherichia coli [1], 3.13 µg/mL (≈ 8.96 µM) in experiment [2] and 0.016 µg/mL (≈ 0.0458 µM) with Escherichia coli [3].
For `CCSc1c(C(=O)O)c(=O)c2cc(F)c(N3C[C@@H]4CCCN[C@@H]4C3)c(OC)c2n1C1CC1`, the MIC in the experiment on Escherichia coli [1] is above 50 µg/mL; in experiment [2] it was 50 µg/mL (≈ 108 µM); against Escherichia coli [3] it was above 50 µg/mL. The inhibition result in experiment [4] was “Active”.
Turning to `COc1c(N2CCNCC2)c(F)cc2c(=O)cc(SC(C)C)n(C3CC3)c12`, the MIC (with Escherichia coli [1]; in experiment [2]; against Escherichia coli [3]) was above 50 µg/mL each time. In addition, in experiment [4], the inhibition result is “Active”.
On to `COc1c(N2C[C@@H]3CCCN[C@@H]3C2)c(F)cc2c(=O)cc(SC(C)C)n(C3CC3)c12`, for which the MIC is above 50 µg/mL in the experiment with Escherichia coli [1], 50 µg/mL (≈ 116 µM) in experiment [2] and 50 µg/mL (≈ 116 µM) against Escherichia coli [3]. Further, the inhibition entry in experiment [4] is “Active”.
